Measurements taken from PubChem BioAssay (NCI).
Where “and” joins values, the source holds several entries; their conditions need not be identical. Identical values can stand only once.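 Grown in 96-well plates, cells were treated for 48 hours with each compound at five concentrations. Insufficient inhibition: endpoint recorded as highest concentration tested. Here, GI50 denotes the concentration required for 50% inhibition of growth. The concentration for full growth arrest is given as TGI.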

Tests used:
Experiment in all cases: NCI-60 cell line screen, 48 h
[1] = tested on: MOLT-4 leukemia
[2] = tested on: K-562 leukemia
[3] = tested on: NCI/ADR-RES ovarian
[4] = tested on: HCC-2998 colon
[5] = tested on: SF-295 CNS
[6] = tested on: SK-MEL-28 melanoma
[7] = tested on: HS 578T breast
[8] = tested on: OVCAR-4 ovarian
[9] = tested on: COLO 205 colon
[10] = tested on: SNB-19 CNS
[11] = tested on: UO-31 renal
[12] = tested on: CCRF-CEM leukemia
[13] = tested on: SK-MEL-5 melanoma
[14] = tested on: NCI-H460 lung
[15] = tested on: NCI-H226 lung
[16] = tested on: MDA-MB-231 breast
[17] = tested on: SNB-75 CNS
[18] = tested on: HOP-92 NSCLC
[19] = tested on: OVCAR-8 ovarian
[20] = tested on: MDA-MB-435
[21] = tested on: HL-60(TB) leukemia
[22] = tested on: TK-10 renal
[23] = tested on: IGROV1 ovarian
[24] = tested on: DU-145 prostate
[25] = tested on: RXF 393 renal
[26] = tested on: CAKI-1 renal
[27] = tested on: HOP-62 NSCLC
[28] = tested on: BT-549 breast
[29] = tested on: UACC-62 melanoma
[30] = tested on: A549 NSCLC
[31] = tested on: SR leukemia
[32] = tested on: OVCAR-5 ovarian
[33] = tested on: RPMI-8226 leukemia
[34] = tested on: NCI-H522 lung
[35] = tested on: 786-0 renal
[36] = tested on: ACHN renal
[37] = tested on: SF-539 CNS
[38] = tested on: SF-268 CNS
[39] = tested on: KM12 colon
[40] = tested on: U251 CNS
[41] = tested on: M14 melanoma
[42] = tested on: A498 renal
[43] = tested on: LOX IMVI melanoma
[44] = tested on: T-47D breast
[45] = tested on: UACC-257 melanoma
[46] = tested on: HT29 colon
[47] = tested on: EKVX NSCLC
[48] = tested on: HCT-15 colon
[49] = tested on: SW-620 colon
[50] = tested on: MDA-N
[51] = tested on: SN12C renal
[52] = tested on: SK-MEL-2 melanoma
[53] = tested on: PC-3 prostate
[54] = tested on: NCI-H23 lung
[55] = tested on: OVCAR-3 ovarian
[56] = tested on: MCF7 breast
[57] = tested on: SK-OV-3 ovarian
[58] = tested on: MALME-3M melanoma
[59] = tested on: HCT-116 colon

With C=CN1CCN(c2ccccc2)P1(=O)Oc1ccccc1 (stereo unspecified) the TGI [1] was > 100 µM, the TGI [2] was > 100 µM and the TGI [3] was > 100 µM. The TGI [4] was > 100000 nM, the TGI [5] was > 100 µM and the TGI [6] was > 100 µM. The TGI [7] was > 100 µM, the TGI [8] was > 100 µM and the TGI [9] was > 100000 nM. For the same compound, the TGI [10] was > 100000 nM, the TGI [11] was 92.8 µM and the TGI [12] was > 100 µM. The TGI [13] was > 100000 nM, the TGI [14] was > 100 µM and the TGI [15] was > 100000 nM. The TGI [16] was > 100 µM, the TGI [17] was > 100000 nM and the TGI [18] was > 100000 nM. For the same compound, the TGI [19] was > 100 µM, the TGI [20] was > 100 µM and the TGI [21] was > 100 µM. The TGI [22] was > 100000 nM, the TGI [23] was > 100 µM and the TGI [24] was > 100000 nM. The TGI [25] was > 100000 nM, the TGI [26] was > 100000 nM and the TGI [27] was > 100 µM. The TGI [28] was > 100 µM, the TGI [29] was > 100 µM and the TGI [30] was > 100 µM. The TGI [31] was > 100 µM, the TGI [32] was > 100 µM and the TGI [33] was > 100 µM. The TGI [34] was > 100 µM, the TGI [35] was > 100 µM and the TGI [36] was > 100000 nM. For the same compound, the TGI [37] was > 100 µM, the TGI [38] was > 100 µM and the TGI [39] was > 100 µM. For the same compound, the TGI [40] was > 100000 nM, the TGI [41] was > 100 µM and the TGI [42] was > 100000 nM. The TGI [43] was > 100 µM, the TGI [44] was > 100 µM and the TGI [45] was > 100 µM. The TGI [46] was > 100 µM, the TGI [47] was > 100000 nM and the TGI [48] was > 100 µM. The TGI [49] was > 100 µM, the TGI [50] was > 100 µM and the TGI [51] was > 100 µM. For the same compound, the TGI [52] was > 100 µM, the TGI [53] was > 100000 nM and the TGI [54] was > 100 µM. The TGI [55] was > 100000 nM, the TGI [56] was > 100 µM and the TGI [57] was > 100 µM. For the same compound, the TGI [58] was > 100 µM and the TGI [59] was > 100 µM.

C[C@@]12C(=O)OC(=O)[C@]1(C)[C@H]1CC[C@@H]2O1 was tested, and the GI50 [1] was 3.88 µM, the TGI [1] was 18 µM and 28.8 µM and the GI50 [2] was 2780 nM. For the same compound, the TGI [2] was 10.1 µM and 8.85 µM, the GI50 [3] was 1870 nM and the TGI [3] was 4.94 µM and 25.5 µM. For the same compound, the GI50 [4] was 1030 nM, the TGI [4] was 3000 nM and 2690 nM and the TGI [5] was 2.85 µM and 3.22 µM. For the same compound, the GI50 [6] was 1540 nM, the TGI [6] was 3 µM and 11.1 µM and the GI50 [7] was 1360 nM and 1560 nM. The TGI [7] was 3 µM and 3.29 µM, the GI50 [8] was 1790 nM and the TGI [8] was 3.88 µM and 8.61 µM. For the same compound, the TGI [9] was 1690 nM and 1010 nM, the GI50 [10] was 1230 nM and the TGI [10] was 2530 nM and 2830 nM. The GI50 [11] was 1510 nM, the TGI [11] was 2.85 µM and 7.06 µM and the GI50 [12] was 1590 nM. The TGI [12] was 10.8 µM and 7.85 µM, the GI50 [13] was 1100 nM and the TGI [13] was 2330 nM and 2770 nM. The GI50 [14] was 2450 nM, the TGI [14] was 10.3 µM and 9.87 µM and the GI50 [15] was 1500 nM. The TGI [15] was 2970 nM, the GI50 [16] was 1510 nM and the TGI [16] was 3.04 µM and 3.24 µM. The GI50 [17] was 698 nM, the TGI [17] was 1910 nM and 1560 nM and the GI50 [18] was 846 nM. For the same compound, the TGI [18] was 2200 nM and 2960 nM, the GI50 [19] was 2100 nM and the TGI [19] was 4.93 µM and 18 µM. For the same compound, the GI50 [20] was 1620 nM, the TGI [20] was 3.02 µM and 4.43 µM and the GI50 [21] was 1390 nM. For the same compound, the TGI [21] was 3.77 µM and 4.07 µM, the GI50 [22] was 250 nM and the TGI [22] was 608 nM and 792 nM. The GI50 [23] was 1800 nM, the TGI [23] was 3.82 µM and 7.78 µM and the GI50 [24] was 1370 nM. For the same compound, the TGI [24] was 2820 nM and 2810 nM, the TGI [25] was 1460 nM and 1700 nM and the TGI [26] was 2110 nM and 2290 nM. The GI50 [27] was 1810 nM, the TGI [27] was 3.34 µM and 5.73 µM and the TGI [28] was 3.06 µM and 3.29 µM. The GI50 [29] was 1360 nM, the TGI [29] was 2.86 µM and 7.48 µM and the GI50 [30] was 1090 nM. For the same compound, the TGI [30] was 2.92 µM and 4.9 µM, the GI50 [31] was 6.78 µM and the TGI [31] was 44.9 µM and 15.3 µM. The GI50 [32] was 1300 nM, the TGI [32] was 3.46 µM and 7.72 µM and the GI50 [33] was 3.15 µM. The TGI [33] was 18.2 µM and 6.29 µM, the GI50 [34] was 1110 nM and the TGI [34] was 2.43 µM and 3.21 µM. For the same compound, the GI50 [35] was 1470 nM, the TGI [35] was 2.85 µM and 3.56 µM and the TGI [36] was 2430 nM and 2830 nM. The GI50 [37] was 1620 nM, the TGI [37] was 3.09 µM and 4.5 µM and the GI50 [38] was 477 nM. For the same compound, the TGI [38] was 1.75 µM and 3.85 µM, the GI50 [39] was 1370 nM and the TGI [39] was 2.76 µM and 17.5 µM. For the same compound, the TGI [40] was 2640 nM and 2910 nM, the TGI [41] was 2.87 µM and 3.48 µM and the GI50 [42] was 1470 nM. For the same compound, the TGI [42] was 2840 nM and 2690 nM, the GI50 [43] was 1440 nM and the TGI [43] was 2.89 µM and 6.79 µM. The GI50 [44] was 1470 nM, the TGI [44] was 3.14 µM and 4.88 µM and the GI50 [45] was 1490 nM. The TGI [45] was 3.11 µM and 9.63 µM, the TGI [46] was 3.43 µM and 5.93 µM and the GI50 [47] was 556 nM. For the same compound, the TGI [47] was 1760 nM and 1900 nM, the GI50 [48] was 2030 nM and the TGI [48] was 4.7 µM and 13.8 µM. The GI50 [49] was 3.07 µM, the TGI [49] was 10.9 µM and 16.6 µM and the GI50 [50] was 1290 nM. For the same compound, the TGI [50] was 2.67 µM and 9.02 µM, the GI50 [51] was 1580 nM and the TGI [51] was 3.21 µM and 4.43 µM. The GI50 [52] was 1260 nM, the TGI [52] was 2.77 µM and 3.38 µM and the GI50 [53] was 525 nM. The TGI [53] was 2020 nM and 1230 nM, the GI50 [54] was 2790 nM and the TGI [54] was 11.4 µM and 20.6 µM. The GI50 [55] was 871 nM, the TGI [55] was 2190 nM and 2230 nM and the TGI [56] was 2.29 µM and 21.3 µM. The GI50 [57] was 1480 nM, the TGI [57] was 3.36 µM and 5.24 µM and the GI50 [58] was 1500 nM. The TGI [58] was 2.99 µM and 3.08 µM and the TGI [59] was 4.38 µM and 4.91 µM.
